Measurements: US10457637B2, “Benzenesulfonamide derivatives as inverse agonists of retinoid-related orphan receptor gamma (RORγ(T))” (GALDERMA RESEARCH & DEVELOPMENT, priority 2014, dated 2019)

What was measured:
[1] = test system: IL-17A secretion by CD4+ cells; test: IL-17A secretion by CD4+ cells (HTRF); assay type: cell-based; conditions: 96 h; human CD4+ cells activated with anti-CD3 and anti-CD28, 4 days of incubation; read-out: IC50 hCD4/IL17
Experimental: This model allows measurement of the effect of inhibitors on IL-17A secretion by CD4+ cells. […] The amount of IL-17a secreted is measured by the TR-FRET (kit HTRF® Human Interleukin 17A (Cisbio, #64H17PEC)) technology.
The cells are rapidly thawed, resuspended in their culture medium (RPMI inactivated 10% FCS) supplemented with soluble anti-CD28 antibodies and seeded (100 000 cells/well) in 96-well plates precoated with anti-CD3 antibodies. The cells are then treated with the ranges of inhibitors to be tested (from 1000 nM to 0.05 nM, 0.1% DMSO). […] The IC50 values are calculated from a 4-parameter logistic model using the XLFit software (IDBS).

[2] = biological target: ROR gamma ligand-binding domain (hRORg) (Homo sapiens (Human), UniProt P51449); test: GAL4-RORγ transactivation (luciferase reporter, HG5LN HeLa line); assay type: cell-based; conditions: 18 hours incubation
Source text: GAL4-RORγ Transactivation
The RORγ transactivation model was developed from the line HG5LN, which is a HeLa line that stably expresses a luciferase reporter gene controlled by a pentamer of the GAL4 recognition domain of yeast and of a β-globin promoter. The HG5LN line was stably transfected by the DNA-binding domain (DBD) of GAL4 fused to the ROR gamma ligand-binding domain (LBD). Molecules that inhibit the ROR gamma constitutive activity reduce the luciferase expression, thus leading to a reduction in the emitted luminescence.
The cells are seeded in 384-well plates (5000 cells in 45 μL/well of culture medium containing 10% fetal calf serum) and incubated for 4 hours at 37° C., 5% CO2. 5 μL of the test molecules (compounds described in the tables described above) are then added to each well and the plates are incubated for 18 hours at a temperature of 37° C. under 5% of CO2. 20 μL of luciferase substrate (Promega) are added to each well and the luminescence emitted is read by a microplate reader.
The luminescence units (“RLU”) are normalized by positive controls (“POS” containing a saturated concentration of benzenesulfonamide, N-(2,2,2-trifluoroethyl)-N-[4-[2,2,2-trifluoro-1-hydroxy-1-(trifluoromethyl)ethyl]phenyl]) and negative controls (“NEG” containing DMSO): % inhibition=((RLU−NEG)*100)/(POS−NEG). The IC50 values are calculated from a 4-parameter logistic model using the XLFit software (IDBS).

Chain of ROR gamma ligand-binding domain (hRORg) (P51449 269-508): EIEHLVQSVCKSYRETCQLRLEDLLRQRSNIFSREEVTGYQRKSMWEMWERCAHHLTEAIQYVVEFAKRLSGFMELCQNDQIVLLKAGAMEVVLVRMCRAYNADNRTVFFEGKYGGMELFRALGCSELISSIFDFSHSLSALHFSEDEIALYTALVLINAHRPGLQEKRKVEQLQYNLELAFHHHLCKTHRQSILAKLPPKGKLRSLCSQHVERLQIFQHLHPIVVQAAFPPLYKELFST

Compound: CCc1ccc(N(CC(C)C)S(=O)(=O)c2ccc(N3CC[C@@H](O)C3)c(S(C)(=N)=O)c2)cc1 (stereo partly drawn) [compound 130, N-(4-ethylphenyl)-4-((R)-3-hydroxypyrrolidin-1-yl)-N-isobutyl-3-(S-methylsulfonimidoyl)benzenesulfonamide]
- IC50 [1]: > 1000 nM
- IC50 [2]: > 1000 nM

Compound: CCc1ccc(N(CC(C)C)S(=O)(=O)c2ccc(NCC3(OC)CCOCC3)c(S(C)(=N)=O)c2)cc1 (stereo not shown) [compound 125, N-(4-ethylphenyl)-N-isobutyl-4-(((4-methoxytetrahydro-2H-pyran-4-yl)methyl)amino)-3-(S-methylsulfonimidoyl)benzenesulfonamide]
- IC50 [1]: > 1000 nM
- IC50 [2]: 100 to 1000 nM

Compound: CCc1ccc(N(CC(C)C)S(=O)(=O)c2ccc(NC[C@@H]3[C@H]4COC[C@@H]34)c(S(C)(=N)=O)c2)cc1 (stereo partly drawn) [compound 91, 4-((((1R,5S,6S)-3-oxabicyclo[3.1.0]hexan-6-yl)methyl)amino)-N-(4-ethylphenyl)-N-isobutyl-3-(S-methylsulfonimidoyl)benzenesulfonamide]
- IC50 [1]: < 100 nM
- IC50 [2]: < 100 nM

Compound: CCc1ccc(N(CC(C)C)S(=O)(=O)c2ccc(OCC3CCOCC3)c(S(=N)(=O)CC)c2)cc1 (stereo not shown) [compound 18, N-(4-ethylphenyl)-N-isobutyl-3-ethanesulfoximino-4-(tetrahydropyran-4-ylmethoxy)benzenesulfonamide]
- IC50 [1]: < 100 nM

Compound: CCc1ccc(N(CC(C)C)S(=O)(=O)c2ccc(NCC3(CC)CCOCC3)c(S(C)(=N)=O)c2)cc1 (stereo not shown) [compound 124, N-(4-ethylphenyl)-4-(((4-ethyltetrahydro-2H-pyran-4-yl)methyl)amino)-N-isobutyl-3-(S-methylsulfonimidoyl)benzenesulfonamide]
- IC50 [1]: < 100 nM

Compound: CCc1ccc(N(CC(C)C)S(=O)(=O)c2ccc(OCC3CCOCC3)c(S(N)(=O)=O)c2)cc1 [compound 66, 4-(tetrahydropyran-4-ylmethoxy)benzene-1,3-disulfonic acid 3-amide 1-[(4-ethylphenyl)isobutylamide]]
- IC50 [1]: < 100 nM

Compound: CCc1ccc(N(CC(C)C)S(=O)(=O)c2ccc(N3CC(O)C3)c(S(C)(=N)=O)c2)cc1 (stereo not shown) [compound 131, N-(4-ethylphenyl)-4-(3-hydroxyazetidin-1-yl)-N-isobutyl-3-(S-methylsulfonimidoyl)benzenesulfonamide]
- IC50 [1]: > 1000 nM
- IC50 [2]: > 1000 nM

Compound: CCc1ccc(N(CC(C)C)S(=O)(=O)c2ccc(NCc3ccncc3)c(S(C)(=N)=O)c2)cc1 (stereo not shown) [compound 64, N-(4-ethylphenyl)-N-isobutyl-3-(S-methylsulfonimidoyl)-4-((pyridin-4-ylmethyl)amino)benzenesulfonamide]
- IC50 [1]: < 100 nM
- IC50 [2]: < 100 nM

Compound: CCc1ccc(N(CC(C)C)S(=O)(=O)c2ccc(N3CC[C@H](O)C3)c(S(C)(=N)=O)c2)cc1 (stereo partly drawn) [compound 129, N-(4-ethylphenyl)-4-((S)-3-hydroxypyrrolidin-1-yl)-N-isobutyl-3-(S-methylsulfonimidoyl)benzenesulfonamide]
- IC50 [1]: > 1000 nM
- IC50 [2]: > 1000 nM

Compound: CCc1ccc(N(CC(C)C)S(=O)(=O)c2ccc(NCc3ccncn3)c(S(C)(=N)=O)c2)cc1 (stereo not shown) [compound 133, N-(4-ethylphenyl)-N-isobutyl-3-(S-methylsulfonimidoyl)-4-((pyrimidin-4-ylmethyl)amino)benzenesulfonamide]
- IC50 [1]: < 100 nM
- IC50 [2]: < 100 nM

Compound: CCc1ccc(N(CC(C)C)S(=O)(=O)c2ccc(NCC3CNC(=O)O3)c(S(C)(=N)=O)c2)cc1 (stereo not shown) [compound 82, N-(4-ethylphenyl)-N-isobutyl-3-(S-methylsulfonimidoyl)-4-(((2-oxooxazolidin-5-yl)methyl)amino)benzenesulfonamide]
- IC50 [2]: 100 to 1000 nM

Compound: CCc1ccc(N(CC(C)C)S(=O)(=O)c2ccc3c(c2)NCCS3)cc1 [compound 9, 3,4-dihydro-2H-benzo[1,4]thiazine-6-sulfonic acid (4-ethylphenyl)isobutylamide]
- IC50 [2]: > 1000 nM

Compound: CCc1ccc(N(CC(C)C)S(=O)(=O)c2ccc3c(c2)N(CC2CCOCC2)C(=O)C[S+]3[O-])cc1 (stereo not shown) [compound 4, 1,3-dioxo-4-(tetrahydropyran-4-ylmethyl)-1,2,3,4-tetrahydro-1λ^4-benzo[1,4]thiazine-6-sulfonic acid (4-ethylphenyl)isobutylamide]
- IC50 [2]: > 1000 nM

Compound: CCc1ccc(N(CC(C)C)S(=O)(=O)c2ccc(OC[C@H]3CNC(=O)O3)c(S(C)(=N)=O)c2)cc1 (stereo partly drawn) [compound 79, N-(4-ethylphenyl)-N-isobutyl-3-(S-methylsulfonimidoyl)-4-(((R)-2-oxooxazolidin-5-yl)methoxy)benzenesulfonamide]
- IC50 [2]: > 1000 nM

Compound: CCc1ccc(N(CC(C)C)S(=O)(=O)c2ccc(N3CC4CC3CO4)c(S(C)(=N)=O)c2)cc1 [compound 117, 4-((1R,4R)-2-oxa-5-azabicyclo[2.2.1]heptan-5-yl)-N-(4-ethylphenyl)-N-isobutyl-3-(S-methylsulfonimidoyl)benzenesulfonamide]
- IC50 [2]: 100 to 1000 nM

Compound: CCc1ccc(N(CC(C)C)S(=O)(=O)c2ccc(NCC3COC3)c(S(C)(=N)=O)c2)cc1 (stereo not shown) [compound 54, N-(4-ethylphenyl)-N-isobutyl-3-(S-methylsulfonimidoyl)-4-((oxetan-3-ylmethyl)amino)benzenesulfonamide]
- IC50 [2]: 100 to 1000 nM

Compound: CCc1ccc(N(CC(C)C)S(=O)(=O)c2ccc(N3C[C@H]4C[C@@H]3CO4)c(S(C)(=N)=O)c2)cc1 (stereo partly drawn) [compound 115, 4-((1R,4R)-2-oxa-5-azabicyclo[2.2.1]heptan-5-yl)-N-(4-ethylphenyl)-N-isobutyl-3-(S-methylsulfonimidoyl)benzenesulfonamide]
- IC50 [2]: 100 to 1000 nM

Compound: CCc1ccc(N(CC(C)C)S(=O)(=O)c2ccc3c(c2)SC(C)(C)N3CC2CCOCC2)cc1 [compound 73, 2,2-dimethyl-3-(tetrahydropyran-4-ylmethyl)-2,3-dihydrobenzothiazole-6-sulfonic acid (4-ethylphenyl)isobutylamide]
- IC50 [2]: > 1000 nM

Compound: CCc1ccc(N(CC(C)C)S(=O)(=O)c2ccc(OCC3CCN(S(C)(=O)=O)CC3)c(S(C)(=N)=O)c2)cc1 (stereo not shown) [compound 51]
- IC50 [2]: > 1000 nM

Compound: CCc1ccc(N(CC(C)C)S(=O)(=O)c2ccc(NCC3CCOCC3)c(S(C)(=N)=O)c2)cc1 (stereo not shown) [compound 52, N-(4-ethylphenyl)-N-isobutyl-3-(S-methysulfonimidoyl)-4-[(tetrahydropyran-4-ylmethyl)amino]benzenesulfonamide]
- IC50 [1]: < 100 nM

Compound: CCc1ccc(N(CC(C)C)S(=O)(=O)c2ccc(NC3CCS(=O)(=O)CC3)c(S(C)(=N)=O)c2)cc1 (stereo not shown) [compound 83, 4-((1,1-dioxidotetrahydro-2H-thiopyran-4-yl)amino)-N-(4-ethylphenyl)-N-isobutyl-3-(S-methylsulfonimidoyl)benzenesulfonamide]
- IC50 [2]: > 1000 nM

Compound: CCc1ccc(N(CC(C)C)S(=O)(=O)c2ccc(Oc3ccc(C#N)cc3)c(S(C)(=N)=O)c2)cc1 (stereo not shown) [compound 80, 4-(4-cyanophenoxy)-N-(4-ethylphenyl)-N-isobutyl-3-(S-methylsulfonimidoyl)benzenesulfonamide]
- IC50 [2]: > 1000 nM

Compound: CCc1ccc(N(CC(C)C)S(=O)(=O)c2ccc(OCC3(F)COC3)c(S(C)(=N)=O)c2)cc1 (stereo not shown) [compound 32, N-(4-eethylphenyl)-4-((3-fluorooxetan-3-yl)methoxy)-N-isobutyl-3-(S-methylsulfonimidoyl)benzenesulfonamide]
- IC50 [2]: > 1000 nM

Compound: CCc1ccc(N(CC(C)C)S(=O)(=O)c2ccc(OCc3ccncc3)c(S(C)(=N)=O)c2)cc1 (stereo not shown) [compound 39, N-(4-ethylphenyl)-N-isobutyl-3-(S-methylsulfonimidoyl)-4-(pyridin-4-ylmethoxy)benzenesulfonamide]
- IC50 [2]: > 1000 nM

Compound: CCc1ccc(N(CC(C)C)S(=O)(=O)c2ccc3c(c2)S(=N)(=O)CN3CC2CCOCC2)cc1 (stereo not shown) [compound 76, 1-imino-1-oxo-3-(tetrahydropyran-4-ylmethyl)-2,3-dihydro-1H-1λ^6-benzothiazole-6-sulfonic acid (4-ethylphenyl)isobutylamide]
- IC50 [2]: > 1000 nM

Compound: CCc1ccc(N(CC(C)C)S(=O)(=O)c2ccc(NC[C@@H]3CNC(=O)O3)c(S(C)(=N)=O)c2)cc1 (stereo partly drawn) [compound 105, N-(4-ethylphenyl)-N-isobutyl-3-(S-methylsulfonimidoyl)-4-((((R)-2-oxooxazolidin-5-yl)methyl)amino)benzenesulfonamide]
- IC50 [2]: > 1000 nM

Compound: CCc1ccc(N(CC(C)C)S(=O)(=O)c2ccc(OCc3ccc(F)cc3F)c(S(C)(=N)=O)c2)cc1 (stereo not shown) [compound 45, 4-((2,4-difluorobenzyl)oxy)-N-(4-ethylphenyl)-N-isobutyl-3-(S-methylsulfonimidoyl)benzenesulfonamide]
- IC50 [2]: > 1000 nM
